Three compounds from PMC9394307, “Discovery of Putative Dual Inhibitor of Tubulin and EGFR by Phenotypic Approach on LASSBio-1586 Homologs” (Pharmaceuticals, 2022) can be followed below.

Where “and” joins values, the source holds several entries; their conditions need not be identical. Identical values can stand only once. Like-named read-outs stand apart in the source and are kept apart here.

In general, CC50 refers to the concentration at which the toxic effect on the cells reaches its halfway point. The melting point is the temperature of the solid-liquid transition.

The test system of data set [1] is EGFR in PC-9 cell line (EGFR^L858R). The data set is described as follows: Guava Muse EGFR-RTK Activation Dual Detection Kit, flow cytometry. It counts as cell-based, human. The protocol:
(§1) Flow cytometry was applied to help elucidate the mechanism of action of the studied compounds, both to verify the cell cycle phase and to verify the action on EGFR protein kinase.
(§2) The anti-tubulin effect was evaluated by seeding H1975, H292 and PC-9 into 6-well plates at a density of 2 × 10^5 per well. The cells were treated with the selected compounds for 72 h. Cells were harvested and stained according to the protocols of The Guava Muse® Cell Cycle Kit (MCH100106) to quantitatively measure the percentage of cells in the G2/M phases of the cell cycle and the EGFR-RTK Activation Dual Detection Kit (MCH200102) (Luminex®) to measure EGFR phosphorylation in relation to total EGFR expression in the cell population, according to the manufacturer’s instructions for use in test kits using a Guava Muse® Cell Analyzer (Luminex®). Each experiment was performed at least three times independently.

The test system of a further data set is HL-60. The data set is described as follows: MTT cell viability assay, HL-60. It counts as cell-based, human. Conditions: Homo sapiens, read-out: CC50 (µM) (CI) HL-60. Here is the method: (§3) The cytotoxic activity of compounds 3–13 was determined based on an MTT assay against different human tumor cell lines, using LASSBio-1586 (2), LASSBio-1735 (3), CA-4 (1) and pelitinib as standards (Table 2). To determine the cytotoxic selectivity index, compounds were also evaluated toward human lymphocytes (Table 3).
(§4) The target compounds were tested (0.0001–100 µM) for cytotoxic activity against selected human cancer cell lines, such as HL-60 (acute promyelocytic leukemia), MCF-7 (mammary adenocarcinoma), PC-3 (prostate adenocarcinoma), H1975 (non-small cell lung cancer—EGFR^L858R+T790M), PC-9 (non-small cell lung cancer—EGFR^L858R) H292 (mucoepidermoid pulmonary carcinoma—EGFR wild type), LoVo (colorectal adenocarcinoma—EGFRwild type) and GM16000 (lymphocyte). All the human cancer cell lines were purchased from Cell Bank of Rio de Janeiro—BCRJ. They were cultured in RPMI 1640 medium with 10% (v/v) FBS, 2 mM glutamine, at 37 °C in a humidified incubator containing 5% CO2.
(§5) The cytotoxicity of the compounds was evaluated by the MTT assay. […] For lymphocytic lines, a density of 0.3 × 10^6 cells/mL was used. Afterwards they were treated with varying concentrations of the target compounds 2–12 (0.0001–100 µM), CA-4 (1) and pelitinib at 37 °C, in triplicate. The medium was incubated with 20 μL of 5 mg/mL MTT solution for 3 h in a humidified incubator containing 5% CO2 [11].
(§6) The purple-colored formazan crystals formed in the wells were dissolved in DMSO and their absorbance was measured at 595 nm with a microplate reader (SpectraMax M5, Molecular Devices).
For orientation: Formazan colour is commonly taken as a measure of viable cells.

In a further data set the test system is H1975. Put plainly: MTT cell viability assay, H1975. Conditions: Homo sapiens, read-out: CC50 (µM) (CI) H1975. It counts as cell-based, human. The protocol: as §3, §4, §5, §6
A further data set concerns H292. The data set is described as follows: MTT cell viability assay, H292. As to conditions: Homo sapiens, read-out: CC50 (µM) (CI) H292. The class given is cell-based, human. The protocol: as §3, §4, §5, §6
The test system of data set [2] is LoVo. Put plainly: MTT cell viability assay, LoVo. It counts as cell-based. Conditions: Homo sapiens, read-out: CC50 (µM) (CI) LoVo. The protocol: as §3, §4
(§7) The cytotoxicity of the compounds was evaluated by the MTT assay. The cell lines were cultured in 96 well plates for 72 h with a density of 0.1 × 10^5 cells/mL to 0.7 × 10^5 cells/mL to adherent cell lines. For lymphocytic lines, a density of 0.3 × 10^6 cells/mL was used. Afterwards they were treated with varying concentrations of the target compounds 2–12 (0.0001–100 µM), CA-4 (1) and pelitinib at 37 °C, in triplicate. The medium was incubated with 20 μL of 5 mg/mL MTT solution for 3 h in a humidified incubator containing 5% CO2 [11].
as §6

The subject of the next data set is MCF-7. Put plainly: MTT cell viability assay, MCF-7. Conditions: Homo sapiens, MCF7, 72 h, read-out: CC50 (µM) (CI) MCF-7. The class given is cell-based, human. Here is the method:
as §3, §4, §7, §6

The next data set concerns PC-3. Put plainly: MTT cell viability assay, PC-3. It counts as cell-based. Conditions: Homo sapiens, read-out: CC50 (µM) (CI) PC-3. The protocol:
as §3, §4, §7, §6

The subject of a further data set is PC-9. The data set is described as follows: MTT cell viability assay, PC-9. The class given is cell-based, human. As to conditions: Homo sapiens, read-out: CC50 (µM) (CI) PC-9. The protocol: as §3, §4, §5, §6
Data set [3] is described as follows: MTT cell viability assay, GM16000 lymphocytes. Conditions: human lymphocytes, value (95% CI). It counts as cell-based. Here is the method:
as §3
To establish the cytotoxic selective index (SI) of LASSBio-1586 homologs, they were studied on human lymphocyte cell lines (GM16000), using the MTT assay. The SI was calculated by the ratio between the CC50 on tumor and non-tumor cell lines. Although there is no consensus, values of SI ≥ 10 is considered satisfactory to assign safety to a new cytotoxic agent. This value means that the compound is more than ten times more cytotoxic to the tumor cell line than to normal cell line.
as §4, §7, §6

Data set [4] concerns LoVo. The data set is described as follows: MTT cell viability assay, LoVo. The class given is cell-based. Conditions: Homo sapiens, 48 h, value (95% CI).
Data set [5] is described as follows: MTT cell viability assay, GM16000 lymphocytes. It counts as cell-based. As to conditions: human lymphocytes, value (95% CI). The source holds these as a separate data set.
In data set [6] the test system is H1975 cells. The data set is described as follows: Cell cycle analysis by flow cytometry (Guava Muse Cell Cycle Kit). The class given is cell-based, human. Conditions: H1975, 48 h of treatment; CA-4 0.04 µM, LASSBio-1586 2.0 µM, LASSBio-1735 0.08 µM, LASSBio-2070 3.0 µM, LASSBio-2074 1.5 µM; vs DMSO 0.1%. The protocol:
Changes in the cell cycle are important aspect in tumorigenesis. Therefore, the identification of the steps related to inhibition of cell multiplication is an important process during the discovery of new antitumoral drug candidates. […] Flow cytometry was used for cell cycle analysis to estimate the percentages of a cell population in the different phases of the cell cycle. The analysis was performed using the lung cancer cell line H1975 treated with CA-4 (1, 0.04 µM), LASSBio-1586 (2, 2.0 µM), LASSBio-1735 (3, 0.08 µM), LASSBio-2070 (10, 3.0 µM) and LASSBio-2074 (11, 1.5 µM).
as §1
as §2, with “The cells were treated with the selected compounds for 72 h.” left out
(Flow cytometry measures light scatter and fluorescence of single cells or particles in a stream.)

Data set [7] relates to H1975 cells. The data set is described as follows: Immunofluorescence of β-tubulin / microtubules. It counts as cell-based, human. As to conditions: H1975, 48 h; CA-4 0.3 µM, vincristine 0.5 µM, taxol 0.1 µM, LASSBio-1586 10 µM, LASSBio-1735 0.5 µM, LASSBio-2070 4.5 µM, LASSBio-2074 20 µM. Here is the method: Antitubulin agents have been broadly classified into destabilizing or stabilizing agents, based on their interference with the dynamic balance of polymerization or depolymerization of microtubules. […] CA-4 (1, 0.3 µM), vincristine (0.5 µM) and taxol (0.1 µM) were used as standard controls.
After incubation, cells were rinsed with PBS and fixed with 4% paraformaldehyde in PBS for 10 min at room temperature. They were then permeabilized with 0.5% Triton-X 100 in PBS 3 times for 10 min. The same solution was used for all subsequent washing steps. Cells were incubated with an anti-beta-tubulin antibody for 1 h at 37 °C. After incubation, cells were washed for 30 min and incubated with Alexa Fluor® 488, conjugated secondary antibody for 1 h at 37 °C, and nuclei were labeled with DAPI (0.1 mg/mL in 0.9% NaCl).
Live cultured cells grown in coverslips were mounted in Prolong Gold solution (Molecular Probes, USA) and were imaged on a Leica TCS SPE confocal microscope (Leica Microsystems, Germany) using 63x 1.3 N.A. oil immersion and the images acquired by the LAS X software. Cell morphology, focusing on the microtubules was analyzed, qualitatively, using the public domain NIH ImageJ Program (developed at the National Institutes of the USA Health and available on the internet at http://imagej.nih.gov/ij/ (accessed on 1 September 2021).

Setting [8] is: GM16000 lymphocyte cells (non-tumor).

As to `C=CC(=O)Nc1cc(Nc2nccc(-c3cn(C)c4ccccc34)n2)c(OC)cc1N(C)CCN(C)C` [Osimertinib, reference compound], the “cells with Inactivated EGFR (EGFR inactivation index)” value in data set [1] was 30%.
For `C=CCN(/N=C/c1ccccc1)C(=O)c1cc(OC)c(OC)c(OC)c1` [LASSBio-2069 (8), (E)-N-allyl-N’-benzylidene-3,4,5-trimethoxybenzohydrazide], the melting point is 64.47 °C and 64 to 65 °C. Also, in the data set with HL-60 (HL-60, 48 h, MTT, 48 h, value (95% CI)), the CC50 is 0.526 µM. Besides, the CC50 in the data set with HL-60 (HL-60, 72 h, MTT, 72 h, value (95% CI)) came to 1.35 µM. Besides, the CC50 in the data set with H1975 (NCI-H1975, 48 h, MTT, 48 h, value (95% CI)) was determined as 1.65 µM. For the same compound, in the data set on H1975 (NCI-H1975, 72 h, MTT, 72 h, value (95% CI)), the CC50 came to 3.74 µM. Also, the CC50 in the data set with H292 (NCI-H292, 48 h, MTT, 48 h, value (95% CI)) amounted to 0.154 µM. Besides, the CC50 in the data set with H292 (NCI-H292, 72 h, MTT, 72 h, value (95% CI)) is 0.778 µM. For the same compound, the CC50 in the data set with LoVo [2] (MTT, 72 h, value (95% CI)) came to 0.298 µM. The CC50 in the data set with MCF-7 (MTT, 72 h, value (95% CI)) is 1.6 µM. The CC50 in the data set with PC-3 (PC-3, MTT, 72 h, value (95% CI)) was determined as 0.462 µM. Besides, in the data set with PC-9 (PC-9, 48 h, MTT, 48 h, value (95% CI)), the CC50 amounted to 0.276 µM. For the same compound, the CC50 in the data set with PC-9 (PC-9, 72 h, MTT, 72 h, value (95% CI)) is 0.387 µM. The compound further registered a CC50 at 72 h in data set [3] (setting [8]) of 0.83 µM. The compound further returned a CC50 in the data set on LoVo [4] of 0.808 µM. In data set [5] (setting [8]), this compound came in with a CC50 at 48 h of 0.095 µM.
Regarding `COc1ccc(/C=C\c2cc(OC)c(OC)c(OC)c2)cc1O` [CA-4 (1), Combretastatin A-4, reference compound], the CC50 with HL-60 (HL-60, 48 h) is 1.3 µM; with HL-60 (HL-60, 72 h) it was 0.077 µM; with H1975 (NCI-H1975, 48 h) it was 0.058 µM; with H1975 (NCI-H1975, 72 h), 0.035 µM; in the data set on H292 (NCI-H292, 48 h), 0.091 µM; in the data set with H292 (NCI-H292, 72 h), 0.013 µM. In addition, the 50% cytotoxic concentration (CC50) in the data set with LoVo [2] (48 h) was 0.179 µM; in the data set on LoVo [2] (72 h), 0.039 µM; in the data set on MCF-7 it was 8.58 µM; with PC-3 (PC-3, 72 h), 0.096 µM; in the data set with PC-9 (PC-9, 48 h), 0.025 µM; in the data set with PC-9 (PC-9, 72 h), 0.01 µM. It took 0.064 µM to reach half-maximal cytotoxicity in data set [3] (CC50 at 72 h). The “cell cycle distribution (G0/G1, S, G2/M)” value in the data set on H1975 cells [6] was “increased cells in phase G2/M”. In addition, in the data set with H1975 cells [7], the “cell morphology after treatment” value is “rounded shape”. Further, the “effect on microtubules (stabilizing / destabilizing profile)” value in the data set with H1975 cells [7] is reported as “typical response of microtubule destabilizing agents”. In [5], this compound displayed a CC50 at 48 h of 0.016 µM.
